{"source": "PubChem BioAssay AID330", "about": "(DTP/NCI, 2004)", "tested_on": "P388 leukemia ip, CD2F1 mice, survival T/C", "test": "NCI In Vivo Anticancer Drug Screen. Data for tumor model P388 Leukemia (intraperitoneal) in CD2F1 (CDF1) mice", "conditions": "endpoint: median survival time, higher = longer survival", "in_short": "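Mice carrying the transplanted tumor received test compound or vehicle. Survival was recorded in each group, and the value is the treated-group measurement divided by that of the vehicle-treated control group.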", "key": {"[1]": {"conditions": "dose: 50.0 mg/kg/injection, schedule: Q01DX009 (ip), vehicle: saline with Tween-80"}, "[2]": {"conditions": "dose: 100.0 mg/kg/injection, schedule: Q01DX009 (ip), vehicle: saline with Tween-80"}, "[3]": {"conditions": "dose: 25.0 mg/kg/injection, schedule: Q01DX009 (ip), vehicle: Klucel (hydroxypropylcellulose) (HPC)"}, "[4]": {"conditions": "dose: 50.0 mg/kg/injection, schedule: Q01DX009 (ip), vehicle: Klucel (hydroxypropylcellulose) (HPC)"}}, "note": "“And” between values parts separate entries of the source, which are not always exact repeats. Equal entries are not always repeated. Toxic doses and inconclusive results are not listed.", "data": [{"compound": "CCCCCC/C(CC(SCC)c1ccccc1Cl)=N\\NC(N)=S", "note": "(stereo unspecified)", "values": [{"measurement": "T/C", "setting": "dose: 60.0 mg/kg/injection, schedule: Q01DX005 (ip), vehicle: saline with Tween-80", "value": "91 % of control"}, {"measurement": "T/C", "setting": "dose: 120.0 mg/kg/injection, schedule: Q01DX005 (ip), vehicle: saline with Tween-80", "value": "96 % of control"}, {"measurement": "T/C", "setting": "dose: 240.0 mg/kg/injection, schedule: Q01DX005 (ip), vehicle: saline with Tween-80", "value": "91 % of control"}]}, {"compound": "Cc1cc(C)[s+]s1", "values": [{"measurement": "T/C", "setting": "dose: 12.5 mg/kg/injection, schedule: Q01DX009 (ip), vehicle: water", "value": "109 % of control"}, {"measurement": "T/C", "setting": "dose: 25.0 mg/kg/injection, schedule: Q01DX009 (ip), vehicle: water", "value": "109 % of control"}, {"measurement": "T/C", "setting": "dose: 50.0 mg/kg/injection, schedule: Q01DX009 (ip), vehicle: water", "value": "115 % of control"}, {"measurement": "T/C", "setting": "dose: 100.0 mg/kg/injection, schedule: Q01DX009 (ip), vehicle: water", "value": "117 % of control"}]}, {"compound": "COc1cc2c(c(OC)c1OC)-c1ccc(SC)c(=O)cc1[C@@H](NC(=O)C(F)(F)F)CC2", "values": [{"measurement": "T/C", "setting": "dose: 0.08 mg/kg/injection, schedule: Q01DX009 (ip), vehicle: Klucel (hydroxypropylcellulose) (HPC)", "value": "110 % of control and 117 % of control"}, {"measurement": "T/C", "setting": "dose: 0.16 mg/kg/injection, schedule: Q01DX009 (ip), vehicle: Klucel (hydroxypropylcellulose) (HPC)", "value": "120 % of control and 124 % of control"}]}, {"compound": "O=C1CSC(c2cc(O)ccc2O)N1c1nncs1", "note": "(stereo unspecified)", "values": [{"measurement": "T/C", "setting": "dose: 50.0 mg/kg/injection, schedule: Q01DX005 (ip), vehicle: saline with Tween-80", "value": "90 % of control"}, {"measurement": "T/C", "setting": "dose: 100.0 mg/kg/injection, schedule: Q01DX005 (ip), vehicle: saline with Tween-80", "value": "97 % of control"}, {"measurement": "T/C", "setting": "dose: 200.0 mg/kg/injection, schedule: Q01DX005 (ip), vehicle: saline with Tween-80", "value": "91 % of control"}]}, {"compound": "c1ccc(C2=NCCCO2)cc1", "values": [{"measurement": "T/C", "setting": "dose: 25.0 mg/kg/injection, schedule: Q01DX009 (ip), vehicle: saline with Tween-80", "value": "104 % of control"}, {"measurement": "T/C", "setting": "dose: 25.0 mg/kg/injection, schedule: Q04DX003 (ip), vehicle: saline with Tween-80", "value": "100 % of control"}, {"measurement": "T/C", "setting": "[1]", "value": "95 % of control"}, {"measurement": "T/C", "setting": "dose: 50.0 mg/kg/injection, schedule: Q04DX003 (ip), vehicle: saline with Tween-80", "value": "100 % of control"}, {"measurement": "T/C", "setting": "[2]", "value": "108 % of control"}, {"measurement": "T/C", "setting": "dose: 100.0 mg/kg/injection, schedule: Q04DX003 (ip), vehicle: saline with Tween-80", "value": "100 % of control"}]}, {"compound": "Clc1c2ccccc2[se][n+]1-c1ccccc1", "values": [{"measurement": "T/C", "setting": "dose: 12.5 mg/kg/injection, schedule: Q01DX009 (ip), vehicle: Klucel (hydroxypropylcellulose) (HPC)", "value": "109 % of control"}, {"measurement": "T/C", "setting": "[3]", "value": "111 % of control"}, {"measurement": "T/C", "setting": "[4]", "value": "115 % of control"}]}, {"compound": "CCOC(=O)C(SC(Cl)(S(=O)(=O)c1ccccc1)S(=O)(=O)c1ccccc1)C(=O)OCC", "values": [{"measurement": "T/C", "setting": "[3]", "value": "105 % of control and 109 % of control"}, {"measurement": "T/C", "setting": "[4]", "value": "116 % of control and 120 % of control and 121 % of control"}, {"measurement": "T/C", "setting": "dose: 100.0 mg/kg/injection, schedule: Q01DX009 (ip), vehicle: Klucel (hydroxypropylcellulose) (HPC)", "value": "115 % of control and 116 % of control and 124 % of control"}, {"measurement": "T/C", "setting": "dose: 200.0 mg/kg/injection, schedule: Q01DX009 (ip), vehicle: Klucel (hydroxypropylcellulose) (HPC)", "value": "110 % of control and 120 % of control and 121 % of control"}, {"measurement": "T/C", "setting": "dose: 400.0 mg/kg/injection, schedule: Q01DX009 (ip), vehicle: Klucel (hydroxypropylcellulose) (HPC)", "value": "109 % of control"}]}, {"compound": "COc1cc(/C=N\\NC(=O)c2cccc(Cl)c2)ccc1N(CCCl)CCCl", "values": [{"measurement": "T/C", "setting": "dose: 200.0 mg/kg/injection, schedule: Q04DX003 (ip), vehicle: saline with Tween-80", "value": "163 % of control"}, {"measurement": "T/C", "setting": "dose: 264.0 mg/kg/injection, schedule: Q04DX003 (ip), vehicle: saline with Tween-80", "value": "154 % of control"}, {"measurement": "T/C", "setting": "dose: 400.0 mg/kg/injection, schedule: Q04DX003 (ip), vehicle: saline with Tween-80", "value": "172 % of control and 195 % of control"}, {"measurement": "T/C", "setting": "dose: 600.0 mg/kg/injection, schedule: Q04DX003 (ip), vehicle: saline with Tween-80", "value": "154 % of control"}]}, {"compound": "CCCC(C)c1ccc(OCc2ccc(C)cc2)cc1", "note": "(stereo unspecified)", "values": [{"measurement": "T/C", "setting": "[1]", "value": "114 % of control"}, {"measurement": "T/C", "setting": "[2]", "value": "91 % of control"}, {"measurement": "T/C", "setting": "dose: 200.0 mg/kg/injection, schedule: Q01DX009 (ip), vehicle: saline with Tween-80", "value": "95 % of control"}]}, {"compound": "COC(=O)c1cc(-c2ccc(C)cc2)[nH]c(=O)c1C#N", "values": [{"measurement": "T/C", "setting": "dose: 60.0 mg/kg/injection, schedule: Q01DX005 (ip), vehicle: saline", "value": "103 % of control"}, {"measurement": "T/C", "setting": "dose: 120.0 mg/kg/injection, schedule: Q01DX005 (ip), vehicle: saline", "value": "100 % of control"}, {"measurement": "T/C", "setting": "dose: 240.0 mg/kg/injection, schedule: Q01DX005 (ip), vehicle: saline", "value": "108 % of control"}]}]}
